Laboratory results from US11801235B2, “Methods and compositions for delivery of biotin to mitochondria” (priority 2020, dated 2023).
Square brackets hold non-standard residues; d marks the D form. Peptide text beside a SMILES is read from it. * marks the point of attachment. Biotin = O=C1N[C@H]2[C@H](CS[C@H]2CCCCC(=O)*)N1

Key:
ARPE-19 cells [1] = assay: Cell number and viability after 30 days of serum deprivation; type: cell-based, human; conditions: 10 nM
Protocol: Cell viability was measured using the Alamar Blue Cell Proliferation Assay (Bio-Rad), according to manufacturer's protocol. Alamar Blue uses resazurin to measure reducing power of living cells. The weakly fluorescent resazurin is reduced to the highly fluorescent resorufin when reduced by cellular metabolism. Briefly, alamar blue reagent (10 ul) was added to the culture medium and incubated for 1 h at 37° C. Fluorescence from resorufin (Ex/Em 530/590 nm) was detected using a microplate reader (SpectraMax iD3, Molecular Devices).
In the second model, ARPE-19 cells were grown in serum-free DMEM in the absence or presence of peptide-conjugated biotin molecules for 30 days. Serum-free media was supplemented with 10 nM of SPN12, SPN15 or SPN16 compounds (all at 10 nM) was replaced every 3 days. Culture medium was replaced every 3 days.

mouse retina = conditions: 30 mg/kg ip
Protocol: SPN15 (30 mg/kg) was administered ip to a 13-month-old male mouse (C57BL/6J strain). At 2-hours after administration, the mouse was anesthetized with an overdose of ketamine/xylazine, and the eyes enucleated. After the cornea and lens were removed, the eyecup was fixed for 1.25 hours in 4% paraformaldehyde in 0.1M Tris buffer. The eyecup was then rinsed 3 times for 10 minutes each in Tris buffer and then cryoprotected in 10%, 20%, and 30% sucrose before sectioning at 30 um with a Leica 3050 cryostat. Sections were stored at −20° C. until used.
To label biotin on SPN15, sections were incubated with Streptavidin conjugated AlexaFluor 594 (1:500) from Jackson ImmunoResearch, West Grove, PA). ToPro 3 (nuclear stain, 1:1000, Molecular Probes) was used to stain cell nuclei. Mitochondria localization was determined using an antibody to Cox IV (cytochrome c oxidase subunit 4; PA529992, 1:300, Invitrogen) and Mitotracker Red (1:1500 in Tris, Invitrogen). All incubations were carried out in microwave (150W) except for Cox IV and Mitotracker labeling, which was done with primary antibody overnight at 4° C. followed by secondary antibody (AF488 conjugated donkey anti-rabbit, Jackson Immunoresearch). Sections were imaged using the Olympus Fluoview 300 with helium, argon and neon lasers using 40× oil immersion lens at a resolution of 1024×1024.

ARPE-19 cells [2] = assay: In vitro scratch assay (scratch area); type: cell-based, human
From the text: (§1) Certain exemplary peptide-conjugated biotin molecules can accelerate wound healing in cell cultures. The in vitro scratch assay is an easy and well-developed method to measure cell proliferation and migration over a “wound area” in vitro. This assay involves creating a “scratch” in a cell monolayer with a pipette tip and then examining the rate at which cells proliferate and migrate to close the scratch.
(§2) The scratch area was examined immediately (day 0) using a Nikon Eclipse Ti2 fluorescence microscope. Six different field were captured for each sample using 4×objective. The scratch area (cell-free zone) was calculated using ImageJ software, an open-source Java image processing program inspired by NIH Image (National Institute of Health). The scratch area was re-examined after 24 hours (day 1), and the area was normalized to the area determined on day 0 for the same sample. All results were calculated as change from no-treatment control and averaged for the six fields.

[3] = tested on: Human retinal pigment epithelial cells (ARPE-19); assay: Mitochondrial potential (TMRM/MitoView Green) after serum starvation; type: cell-based; conditions: ARPE-19 cells, 3 days of serum starvation, then 1 uM for 2 hours
Protocol: ARPE-19 cells were seeded in 35 mm glass plates at an initial density of 5×10^4 cells. […] Cells were then incubated in serum-free DMEM/F12 alone (control group) or DMEM/F12 containing 1 uM of SPN12 or SPN15 for 2 hours.
To determine mitochondrial potential, live cells were incubated with 5 nM tetramethylrhodamine methyl ester (TMRM, #70017, Biotium, Fremont, CA) in DMEM without phenol red. TMRM is a potential-dependent fluorescent dye (Ex/Em=548/573). TMRM accumulates in negatively charged polarized mitochondria and can be detected as red fluorescence. Total mitochondria were imaged with a mitochondrial potential-independent fluorescent dye (100 nM MitoView Green; Ex/Em=490/523; #70054, Biotium, Fremont CA). Hoechst 33342 (10 ug/ml, Novus Biologicals, Centennial, CO) was added to stain nuclei. Live cells were covered with phosphate buffer and imaged using the Nikon Eclipse Ti fluorescent microscopy using the 60×water objective.

[4] = tested on: ARPE-19 human retinal pigment epithelial cells; assay: Biotin uptake by streptavidin-Alexa Fluor 594 fluorescence in ARPE-19 cells; conditions: 1 uM, 1-hour incubation, serum-free
Protocol: Cellular uptake and localization of peptide-conjugated biotin molecules were determined in HK-2 human renal epithelial cells and ARPE-19 human retinal pigment epithelial cells (ATCC, Manassas, VA). HK-2 cells were cultured in Dulbecco's Modified Eagle's Medium (DMEM) containing 1 g/L glucose and 10% fetal bovine serum (FBS), 100 units/ml penicillin and 100 ug/ml streptomycin. ARPE-19 cells were cultured in DMEM/F12 medium containing 1 g/L glucose and 10% fetal bovine serum (FBS), 100 units/ml penicillin and 100 ug/ml streptomycin. Cells were incubated in humidified incubator with 5% CO2 at 37° C. HK-2 cells and ARPE-19 cells were seeded in 35 mm dish at an initial density of 5×10^4 cells. FBS was removed from the culture medium for 3 days to deplete endogenous biotin in the cells. […]
Biotin uptake was determined using Streptavidin binding. […] By using Alexa Fluor 594-conjugated streptavidin, it is possible to visualize biotin uptake using fluorescence microscopy. […] Live cell image buffer was added and Alexa-594 fluorescence (Ex/Em=591/614 nm) and Hoechst fluorescence ([…]) was observed using the Nikon Eclipse Ti2 fluorescence microscope (100×oil objective). Ten random fields from each sample were quantified by NIS-Elements Imaging Software (Nikon) for streptavidin fluorescence and normalized to Hoechst fluorescence to account for number of cells per field.

[5] = tested on: ARPE-19 human retinal pigment epithelial cells; assay: Mitochondrial localization: co-localization with cytochrome c oxidase subunit 4 (COX4); type: cell-based; conditions: ARPE-19 cells, 1 uM, 2 hours, serum-free DMEM/F12
Protocol: Cells were fixed with 4% PFA at RT for 10 min and then permeabilized with 0.1% Triton X-100 at RT for 10 min. Cells were blocked with 2% BSA (bovine serum albumin) at RT for 30 min, and then incubated with primary antibody for cytochrome c oxidase subunit 4 (COX4), a major protein complex expressed on the inner mitochondrial membrane. The rabbit polyclonal COX4 antibody (Invitrogen PAS-29992, Waltham, MA) was used at 1:500 dilution in 2% BSA at 4° C. overnight.

HK-2 cells = assay: In vitro scratch assay (scratch area); type: cell-based, human; conditions: 10 nM, serum-free, 24 hours
Protocol: as §1
3×10^5 cells were plated per well in 6-well plates in DMEM at 37° C. in a humidified incubator with 5% CO2 for one day prior to the experiment. To mimic the microenvironment of wounds in vitro, serum-free medium was used in the scratch assay. On the day of the scratch assay, the medium was replaced with serum-free DMEM, and a line scraped across the cell monolayer using a p1000 pipette tip. Cells were washed to remove cell debris and replaced with DMEM alone (control), or DMEM containing 10 nM biotin or peptide-conjugated biotin molecules.
as §2

[6] = mouse, 2 hours after administration

N=C(N)NCCC[C@@H](N)C(=O)N[C@@H](Cc1ccc(O)cc1)C(=O)N[C@H](CCCNC(=N)N)C(=O)N[C@@H](Cc1ccccc1)C(=O)N[C@@H](CCCCNC(=O)CCCC[C@@H]1SC[C@@H]2NC(=O)N[C@@H]21)C(N)=O [SPN15, D-Arg-L-Tyr-D-Arg-L-Phe-L-Lys(biotinyl)-NH2] (H-[dR]Y[dR]FK(Biotin)-NH2; N-terminus assumed)
cell viability after serum deprivation compared to control, FIG. 9 (ARPE-19 cells [1]; 30 days of serum deprivation): doubled | cell number after prolonged serum deprivation, microscopic images FIG. 8 (ARPE-19 cells [1]; 30 days serum-free): increased cell number | absorption after ip administration (mouse retina; living mouse, 2 hours): rapidly absorbed | co-localization of streptavidin staining with COX4 staining in retina, FIG. 26 (mouse retina; [6]): co-localizes with COX4 staining in the RGC, IPL, INL, and the photoreceptor IS | distribution of staining within retinal layers, FIG. 26 (mouse retina; [6]): concentrated in the inner and outer plexiform layers (IPL and OPL) | staining in retinal pigment epithelium (RPE) cells, FIG. 27 (mouse retina; [6]): can clearly be seen in the RPE cells | uptake into retina (Streptavidin Alexa Fluor 594 staining), FIG. 26 (mouse retina; [6]): clearly taken up in the different layers of the retina | wound healing (scratch closure), FIG. 18 (ARPE-19 cells [2]): accelerated wound healing | mitochondrial potential (TMRM) and filamentous mitochondrial network, FIG. 14 [3]: restore mitochondrial potential in all cells | intracellular streptavidin staining (cellular uptake of biotin), microscopic images FIG. 4 [4]: intense red staining with a perinuclear distribution | co-localization of biotin staining with COX4 staining (inner mitochondrial membrane), FIG. 6 [5]: co-localization | closure of the scratch area compared to control, FIG. 16 and FIG. 17 (HK-2 cells): significantly accelerated the closure of the scratch area | effectiveness in reducing scratch area compared to free biotin, FIG. 16 and FIG. 17 (HK-2 cells): three times more effective
